Measured values from patent US20050148570A1, “Novel substituted alkane compounds and uses thereof” (priority 2001, published 2005).
In brackets after ≈: the same amount, converted by molar mass.

Experiments:
[1] = test system: S. aureus; experiment: MIC, broth dilution method; type: cell-based; settings: for MIC: Staphylococcus aureus, read-out: Antibacterial Activity against S. aureus MIC
Description: (§1) Antibacterial activity can be determined by several standard methods well known by those skilled in the art, including disc diffusions methods, broth dilution minimal inhibitory concentration (MIC) methods, etc., including the detailed method outlined below. Cultures of bacteria are initially brought up from the freezer by streaking a loopful onto agar plates under the appropriate conditions. For instance stocks are streaked onto chocolate agar and then incubated for 18 hours at 35-37° C. in a 5% CO2 incubator. Five to 10 colonies are picked from the chocolate agar plate for subculture to Brain-Heart Infusion (BHI) broth or Mueller Hinton broth or BHI containing 4% serum and incubated under the appropriate conditions. The ability of the test compound to act as an antimicrobial is determined by the ability to inhibit bacterial, algae, or fungal growth in vitro. The optical density of the culture of organisms in the presence of an active compound is compared to the optical density of the same organism untreated. The activity of the compounds is described as either negative or the lowest concentration inhibiting growth.

[2] = test system: H. influenzae; experiment: MIC, broth dilution method; type: cell-based; settings: Haemophilus influenzae, read-out: MIC Anti-Bacterial Activity
Description: as §1

[3] = test system: S. pyogenes; experiment: MIC, broth dilution method; type: cell-based; settings: Streptococcus pyogenes, read-out: MIC Anti-Bacterial Activity
Description: as §1

[4] = test system: C. diphtheriae; experiment: MIC, broth dilution method; type: cell-based; settings: Corynebacterium diphtheriae, read-out: MIC Anti-Bacterial Activity
Description: as §1

[5] = test system: M. catarrhalis; experiment: MIC, broth dilution method; type: cell-based; settings: Moraxella catarrhalis, read-out: MIC Anti-Bacterial Activity
Description: as §1

[6] = test system: S. epidermidis; experiment: MIC, broth dilution method; type: cell-based; settings: Staphylococcus epidermidis, read-out: MIC Anti-Bacterial Activity
Description: as §1

[7] = test system: M. smegimatis; experiment: MIC, broth dilution method; type: cell-based; settings: read-out: MIC Anti-Bacterial Activity
Description: as §1

[8] = test system: S. pneumoniae; experiment: MIC, broth dilution method; type: cell-based; settings: Streptococcus pneumoniae, read-out: MIC Anti-Bacterial Activity
Description: as §1

[9] = test system: E. faecalis; experiment: MIC, broth dilution method; type: cell-based; settings: Enterococcus faecalis, read-out: MIC Anti-Bacterial Activity
Description: as §1

`C[C@H]1[C@H](CC(C)(C)C)CC1(c1ccc(O)cc1)c1ccc(O)cc1` (relative stereo) [Example 13, Trans-1,1-di(4-hydroxyphenyl)-3-(2,2-dimethylpropyl)-2-methylcyclobutane] gave an MIC [1] of 3.1 µg/mL (≈ 9.55 µM).

With `C[C@H]1[C@@H](CC(C)(C)C)CC1(c1ccc(O)cc1)c1ccc(O)cc1` (relative stereo) [Example 14, Cis-1,1-di(4-hydroxyphenyl)-3-(2,2-dimethylpropyl)-2-methylcyclobutane] the melting point was 79 to 81 °C and the MIC [1] was 0.8 µg/mL (≈ 2.47 µM).

`C[C@H]1[C@H](CC(C)(C)C)CC1(c1ccc(O)c(Cl)c1)c1ccc(O)c(Cl)c1` (relative stereo) [Example 26, Trans-1,1-Di(3-chloro-4-hydroxyphenyl)-3-(2,2-dimethylpropyl)-2-methylcyclobutane] gave a melting point of 126 to 128 °C and an MIC [1] of 0.8 µg/mL (≈ 2.03 µM).

Compound `Cc1cc(C2(c3cc(C)c(O)c(Cl)c3)C[C@@H](CC(C)(C)C)[C@@H]2C)cc(Cl)c1O` (relative stereo) [Example 27, Trans-1,1-di(5-chloro-4-hydroxy-3-methylphenyl)-3-(2,2-dimethylpropyl)-2-methylcyclobutane] has an MIC [1] of 0.8 µg/mL (≈ 1.9 µM).

Work on `Cc1cc(C2(c3cc(C)c(O)c(Cl)c3)C[C@@H](CC(C)(C)C)[C@@H]2C)ccc1O` (relative stereo) [Example 28, Trans-1-(4-hydroxy-3-methylphenyl)-1-(5-chloro-4-hydroxy-3-methylphenyl)-3-(2,2-dimethylpropyl)-2-methylcyclobutane] yielded a melting point of 138 to 140 °C and an MIC [1] of 6.2 µg/mL (≈ 16 µM).

In the case of `CCCC1CC(c2ccc(O)c(C)c2)(c2ccc(O)c(C)c2)C1` [Example 1, 1,1-Bis(4-hydroxy-3-methylphenyl)-3-n-propyl-cyclobutane], the melting point is reported as 130 to 132 °C, the MIC [2] is reported as 1 µg/mL (≈ 3.22 µM) and the MIC [3] is reported as 6 µg/mL (≈ 19.3 µM). It also gave an MIC [4] of 2 µg/mL (≈ 6.44 µM), an MIC [1] of 1 µg/mL (≈ 3.22 µM) and an MIC [5] of 2 µg/mL (≈ 6.44 µM). For the same compound, the MIC [6] was 2 µg/mL (≈ 6.44 µM), the MIC [7] was 3 µg/mL (≈ 9.66 µM) and the MIC [8] was 6 µg/mL (≈ 19.3 µM). The MIC [9] was 3 µg/mL (≈ 9.66 µM).

`CCCC1CC(c2ccc(O)cc2)(c2ccc(O)cc2)C1` [Example 3, 1,1-Bis(4-hydroxyphenyl)-3-n-propyl-cyclobutane] gave an MIC [2] of 13 µg/mL (≈ 46 µM), an MIC [3] of 13 µg/mL (≈ 46 µM) and an MIC [4] of 6 µg/mL (≈ 21.2 µM). It also gave an MIC [1] of 8 µg/mL (≈ 28.3 µM), an MIC [5] of 3 µg/mL (≈ 10.6 µM) and an MIC [6] of 6 µg/mL (≈ 21.2 µM). For the same compound, the MIC [7] was 6 µg/mL (≈ 21.2 µM), the MIC [8] was 6 µg/mL (≈ 21.2 µM) and the MIC [9] was 13 µg/mL (≈ 46 µM).

For `CCCC1CC(c2ccc(O)cc2)(c2ccc(O)c(Cl)c2)C1` (centres unmarked) [Example 4, 1-(4-Hydroxyphenyl)-1-(4-hydroxy-3-chloro-phenyl)-3-n-propyl-cyclobutane], the MIC [2] was 6 µg/mL (≈ 18.9 µM), the MIC [3] was 13 µg/mL (≈ 41 µM) and the MIC [4] was 2 µg/mL (≈ 6.31 µM). For the same compound, the MIC [1] was 2 µg/mL (≈ 6.31 µM), the MIC [5] was 1 µg/mL (≈ 3.16 µM) and the MIC [6] was 2 µg/mL (≈ 6.31 µM). The MIC [7] was 2 µg/mL (≈ 6.31 µM), the MIC [8] was 3 µg/mL (≈ 9.47 µM) and the MIC [9] was 3 µg/mL (≈ 9.47 µM).

Work on `CCCC1CC(c2ccc(O)c(Cl)c2)(c2ccc(O)c(Cl)c2)C1` [Example 5, 1,1-Bis(4-hydroxy-3-chloro-phenyl)-3-n-propyl-cyclobutane] yielded a melting point of 103 to 105 °C, an MIC [2] of 3 µg/mL (≈ 8.54 µM) and an MIC [3] of 13 µg/mL (≈ 37 µM). The MIC [4] was 1 µg/mL (≈ 2.85 µM), the MIC [1] was 1 µg/mL (≈ 2.85 µM) and the MIC [5] was 1 µg/mL (≈ 2.85 µM). It also gave an MIC [6] of 1 µg/mL (≈ 2.85 µM), an MIC [7] of 1 µg/mL (≈ 2.85 µM) and an MIC [8] of 3 µg/mL (≈ 8.54 µM). For the same compound, the MIC [9] was 2 µg/mL (≈ 5.69 µM).

`CCCCC1CC(c2ccc(O)cc2)(c2ccc(O)cc2)C1` [Example 6, 1,1-Bis(4-hydroxyphenyl)-3-n-butyl-cyclobutane] gave an MIC [2] of 13 µg/mL (≈ 43.9 µM), an MIC [3] of 13 µg/mL (≈ 43.9 µM) and an MIC [4] of 3 µg/mL (≈ 10.1 µM). It also gave an MIC [1] of 4 µg/mL (≈ 13.5 µM), an MIC [5] of 3 µg/mL (≈ 10.1 µM) and an MIC [6] of 3 µg/mL (≈ 10.1 µM). For the same compound, the MIC [7] was 3 µg/mL (≈ 10.1 µM), the MIC [8] was 6 µg/mL (≈ 20.2 µM) and the MIC [9] was 3 µg/mL (≈ 10.1 µM).

`CCCCC1CC(c2ccc(O)cc2)(c2ccc(O)c(Cl)c2)C1` (centres unmarked) [Example 7, 1-(4-Hydroxyphenyl)-1-(4-hydroxy-3-chlorophenyl)-3-n-butyl-cyclobutane] gave an MIC [2] of 6 µg/mL (≈ 18.1 µM), an MIC [3] of 6 µg/mL (≈ 18.1 µM) and an MIC [4] of 2 µg/mL (≈ 6.04 µM). The MIC [1] was 1 µg/mL (≈ 3.02 µM), the MIC [5] was 1 µg/mL (≈ 3.02 µM) and the MIC [6] was 1 µg/mL (≈ 3.02 µM). The MIC [7] was 1 µg/mL (≈ 3.02 µM), the MIC [8] was 3 µg/mL (≈ 9.07 µM) and the MIC [9] was 2 µg/mL (≈ 6.04 µM).

In the case of `CCCCC1CC1(c1ccc(O)c(C)c1)c1ccc(O)c(C)c1` (centres unmarked) [Example 10, 1,1-Bis(4-hydroxy-3-methylphenyl)-2-n-butylcyclopropane], the MIC [1] is reported as 3 µg/mL (≈ 9.66 µM).

In the case of `CC(C)(C)CC1CC(c2ccc(O)cc2)(c2ccc(O)cc2)C1` [Example 11, 1,1-Di(4-hydroxyphenyl)-3-(2,2-dimethylpropyl)cyclobutane], the melting point is reported as 182 to 184 °C and the MIC [1] is reported as 12.5 µg/mL (≈ 40.3 µM).

`Cc1cc(C2(c3ccc(O)c(C)c3)CC(CC(C)(C)C)C2)ccc1O` [Example 12, 1,1-Di(4-hydroxy-3-methylphenyl)-3-(2,2-dimethylpropyl)cyclobutane] showed a melting point of 175 to 176 °C and an MIC [1] of 1.6 µg/mL (≈ 4.73 µM).

For `Cc1cc(C2(c3ccc(O)c(C)c3)CC(C(C)(C)C)C2)ccc1O` [Example 16, 1,1-Di-(4-hydroxy-3-methylphenyl)-3-(1,1-dimethylethyl)cyclobutane], the MIC [1] was 0.8 µg/mL (≈ 2.47 µM).

`CC(C)(C)C1CC(c2ccc(O)cc2)(c2ccc(O)cc2)C1` [Example 17, 1,1-Di-(4-hydroxyphenyl)-3-(1,1-dimethylethyl)cyclobutane] showed an MIC [1] of 6.2 µg/mL (≈ 20.9 µM).

`CCCCC1CC1(c1ccc(O)cc1)c1ccc(O)cc1` (centres unmarked) [Example 18, 1,1-Di(4-hydroxyphenyl)-2-n-butylcyclopropane] showed an MIC [1] of 3.1 µg/mL (≈ 11 µM).

With `CCCCCC1CC1(c1ccc(O)cc1)c1ccc(O)cc1` (centres unmarked) [Example 19, 1,1-Di(4-hydroxyphenyl)-2-n-pentylcyclopropane] the MIC [1] was 6.2 µg/mL (≈ 20.9 µM).

`CCCCC1CC1(c1ccc(O)c(Cl)c1)c1ccc(O)c(Cl)c1` (centres unmarked) [Example 20, 1,1-Di(3-chloro-4-hydroxyphenyl)-2-n-butylcyclopropane] gave an MIC [1] of 1.6 µg/mL (≈ 4.55 µM).

For `CCCCC1CC1(c1ccc(O)c(Cl)c1)c1cc(Cl)c(O)c(Cl)c1` (centres unmarked) [Example 21, 1-(3-Chloro-4-hydroxyphenyl)-1-(4-hydroxy-3,5-dichlorophenyl)-2-n-butylcyclopropane], the MIC [1] was 3.1 µg/mL (≈ 8.04 µM).

`CCCCCC1CC1(c1ccc(O)c(Cl)c1)c1ccc(O)c(Cl)c1` (centres unmarked) [Example 22, 1,1-Di(3-chloro-4-hydroxyphenyl)-2-pentylcyclopropane] showed an MIC [1] of 1.6 µg/mL (≈ 4.38 µM).

`CCCCCC1CC1(c1ccc(O)c(Cl)c1)c1cc(Cl)c(O)c(Cl)c1` (centres unmarked) [Example 23, 1-(3-Chloro-4-hydroxyphenyl)-1-(4-hydroxy-3,5-dichlorophenyl)-2-pentylcyclopropane] gave an MIC [1] of 1.6 µg/mL (≈ 4 µM).

In the case of `CC(C)(C)CC1CC(c2ccc(O)c(Cl)c2)(c2ccc(O)c(Cl)c2)C1` [Example 24, 1,1-Di-(3-chloro-4-hydroxyphenyl)-3-(2,2-dimethylpropyl)cyclobutane], the melting point is reported as 131 to 134 °C and the MIC [1] is reported as 1.6 µg/mL (≈ 4.22 µM).

For `CC(C)(C)C1CCC1(c1ccc(O)c(Cl)c1)c1ccc(O)c(Cl)c1` (centres unmarked) [Example 25, 1,1-Di-(3-chloro-4-hydroxyphenyl)-2-(1,1-dimethylethyl)cyclobutane], the melting point was 133 to 135 °C and the MIC [1] was 0.8 µg/mL (≈ 2.19 µM).

`CCCCC1CC(c2ccc(O)c(CC)c2)(c2ccc(O)c(CC)c2)C1` [Example 29, 1,1-Di(3-ethyl-4-hydroxyphenyl)-3-n-butylcyclobutane] showed a melting point of 135 to 138 °C and an MIC [1] of 0.8 µg/mL (≈ 2.27 µM).

For `CCCCC1CC(c2cc(C)c(O)c(C)c2)(c2cc(C)c(O)c(C)c2)C1` [Example 30, 1,1-Di(3,5-dimethyl-4-hydroxyphenyl)-3-n-butylcyclobutane], the melting point was 138 to 141 °C and the MIC [1] was 0.8 µg/mL (≈ 2.27 µM).

With `CCCCCC1CC(c2ccc(O)c(CC)c2)(c2ccc(O)c(CC)c2)C1` [Example 31, 1,1-Di(3-ethyl-4-hydroxyphenyl)-3-n-pentylcyclobutane] the melting point was 109 to 111 °C and the MIC [1] was 1.6 µg/mL (≈ 4.37 µM).

`CCCCCC1CC(c2cc(C)c(O)c(C)c2)(c2cc(C)c(O)c(C)c2)C1` [Example 32, 1,1-Di(3,5-dimethyl-4-hydroxyphenyl)-3-n-pentylcyclobutane] showed a melting point of 115 to 117 °C and an MIC [1] of 1.6 µg/mL (≈ 4.37 µM).

`C=CCc1cc(C2(c3ccc(O)c(CC=C)c3)CC(CCCC)C2)ccc1O` [Example 33, 1,1-Di(3-allyl-4-hydroxyphenyl)-3-n-butylcyclobutane] gave an MIC [1] of 1.6 µg/mL (≈ 4.25 µM).

Work on `CCCCCC1c2ccc(O)cc2-c2cc(O)ccc21` [Example 34, 9-Pentyl-9H-fluorene-3,6-diol] yielded an MIC [1] of 3.1 µg/mL (≈ 11.6 µM).

With “Trans-1,1-di-(4-hydroxy-3-methylphenyl)-3-(2,2-dimethylpropyl)-2-methylcyclobutane [Example 15]” the “Antibacterial Activity against S. aureus MIC” value ([1]; S. aureus) was 0.4 µg/mL.
